Data reported in ChEMBL document CHEMBL3871297, “Squarate-based carbocyclic nucleosides: Syntheses, computational analyses and anticancer/antiviral evaluation” (2017).

How the values were obtained:
Assay type in all cases: functional
[1] = Cytotoxicity against human EKVX cells assessed as cell growth at 10 uM after 2 days by SRB assay relative to control; conditions: 48 h, read-out: Activity
[2] = Cytotoxicity against human NCI-H522 cells assessed as cell growth at 10 uM after 2 days by SRB assay relative to control; conditions: NCI-H522, 48 h, read-out: Activity
[3] = Cytotoxicity against human SK-MEL-28 cells assessed as cell growth at 10 uM after 2 days by SRB assay relative to control; conditions: SK-MEL-28, 48 h, read-out: Activity
[4] = Cytotoxicity against human OVCAR4 cells assessed as cell growth at 10 uM after 2 days by SRB assay relative to control; conditions: OVCAR-4, 48 h, read-out: Activity
[5] = Cytotoxicity against human RXF393 cells assessed as cell growth at 10 uM after 2 days by SRB assay relative to control; conditions: RXF 393, 48 h, read-out: Activity
[6] = Cytotoxicity against human T47D cells assessed as cell growth at 10 uM after 2 days by SRB assay relative to control; conditions: 48 h, read-out: Activity
[7] = Cytotoxicity against human M14 cells assessed as cell growth at 10 uM after 2 days by SRB assay relative to control; conditions: M14, 48 h, read-out: Activity
[8] = Cytotoxicity against human MCF7 cells assessed as cell growth at 10 uM after 2 days by SRB assay relative to control; conditions: MCF7, 48 h, read-out: Activity
[9] = Cytotoxicity against human DU145 cells assessed as cell growth at 10 uM after 2 days by SRB assay relative to control; conditions: DU-145, 48 h, read-out: Activity
[10] = Cytotoxicity against human 786-0 cells assessed as cell growth at 10 uM after 2 days by SRB assay relative to control; conditions: 786-0, 48 h, read-out: Activity
[11] = Cytotoxicity against human OVCAR3 cells assessed as cell growth at 10 uM after 2 days by SRB assay relative to control; conditions: OVCAR-3, 48 h, read-out: Activity
[12] = Cytotoxicity against human PC3 cells assessed as cell growth at 10 uM after 2 days by SRB assay relative to control; conditions: PC-3, 48 h, read-out: Activity
[13] = Cytotoxicity against human OVCAR8 cells assessed as cell growth at 10 uM after 2 days by SRB assay relative to control; conditions: OVCAR-8, 48 h, read-out: Activity
[14] = Cytotoxicity against human BT549 cells assessed as cell growth at 10 uM after 2 days by SRB assay relative to control; conditions: BT-549, 48 h, read-out: Activity
[15] = Cytotoxicity against human HCC2998 cells assessed as cell growth at 10 uM after 2 days by SRB assay relative to control; conditions: HCC 2998, 48 h, read-out: Activity
[16] = Cytotoxicity against human A498 cells assessed as cell growth at 10 uM after 2 days by SRB assay relative to control; conditions: A498, 48 h, read-out: Activity
[17] = Cytotoxicity against human HeLa cells assessed as reduction in cell viability cell at 300 uM after 24 hrs by MTT assay

SMILES | growth at 10 µM [1] | growth at 10 µM [2] | growth at 10 µM [3] | growth at 10 µM [4] | growth at 10 µM [5] | growth at 10 µM [6] | growth at 10 µM [7] | growth at 10 µM [8] | growth at 10 µM [9] | growth at 10 µM [10] | growth at 10 µM [11] | growth at 10 µM [12] | growth at 10 µM [13] | growth at 10 µM [14] | growth at 10 µM [15] | growth at 10 µM [16] | inhibition at 300 µM [17]
COc1c(N[C@H]2C=C[C@@H](CO)C2)c(=O)c1=O | 125% | 86.5% | 125% | 109% | 126% | 106% | 97.1% | 94.2% | 117% | 98.5% | 105% | 101% | 94.6% | 110% | 107% | 105% | 
O=c1c(O)c(N[C@H]2C=C[C@@H](CO)C2)c1=O | 129% | 91.6% | 140% | 102% | 166% | 107% | 111% | 107% | 120% | 102% | 122% | 110% | 107% |  | 106% |  | 
Nc1c(N[C@H]2C=C[C@@H](CO)C2)c(=O)c1=O | 121% | 90.1% | 128% | 111% | 143% | 105% | 101% | 101% |  | 106% |  | 103% | 92.8% | 115% | 107% | 114% | 50%
